From patent US7741359B2, “Hydrogen sulfide derivatives of non-steroidal anti-inflammatory drugs” (Antibe Therapeutics Inc., priority 2006, dated 2010)
Entries after “also recorded” stand apart in the source; their conditions may differ.

Columns and labels:
[1] = target: T1, COX-2 (Rattus norvegicus, UniProt P35355); test: Rat airpouch assay, exudate PGE2 after zymosan (inhibition of COX-2 in vivo)
T1 construct: from tissue; host or cells: rat subcutaneous airpouch (in vivo, zymosan-induced inflammation)
T1 sequence (P35355 18-604): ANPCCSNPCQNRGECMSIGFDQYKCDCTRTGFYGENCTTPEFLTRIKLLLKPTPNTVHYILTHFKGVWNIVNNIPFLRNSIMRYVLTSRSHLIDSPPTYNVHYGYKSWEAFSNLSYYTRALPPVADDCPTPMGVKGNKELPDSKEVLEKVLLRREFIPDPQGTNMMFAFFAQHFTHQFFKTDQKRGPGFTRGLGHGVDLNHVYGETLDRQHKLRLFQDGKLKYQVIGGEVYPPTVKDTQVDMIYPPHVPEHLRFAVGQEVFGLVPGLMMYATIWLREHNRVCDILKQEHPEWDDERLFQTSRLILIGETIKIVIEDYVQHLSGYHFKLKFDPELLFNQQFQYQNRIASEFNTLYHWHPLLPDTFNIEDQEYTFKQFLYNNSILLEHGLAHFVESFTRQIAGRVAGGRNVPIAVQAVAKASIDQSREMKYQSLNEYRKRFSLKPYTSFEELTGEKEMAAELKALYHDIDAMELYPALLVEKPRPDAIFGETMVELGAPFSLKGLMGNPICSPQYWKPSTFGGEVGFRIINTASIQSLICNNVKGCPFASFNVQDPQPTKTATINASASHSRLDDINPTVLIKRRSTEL
Description: Briefly, a subcutaneous “pouch” is created by repeated injections of air over several days. Once established, inflammation in the pouch can be induced by injection of 1 mL of 1% zymosan. […] Another group of 5 rats was treated with the vehicle, but received an injection of 0.9% sterile saline into the pouch rather than zymosan. […]
Each group consisted of 5 rats.

[2] = Healing of acetic acid-induced gastric ulcers; format: in vivo, rat; conditions: starting 3 days after ulcer induction, FIG. 13
Description: Gastric ulcers were induced via serosal application of acetic acid, as described by Elliott et al., A nitric oxide-releasing nonsteroidal anti-inflammatory drug accelerates gastric ulcer healing in rats. Gastroenterology 1995; 109: 524-530. […] After 4 days of such treatment, the rats were euthanized and the stomach was excised and photographed. The area (in mm^2) of the ulcer was determined planimetrically by an individual unaware of the treatments given to the rats. In a subgroup of 5 rats euthanized 3 days after induction of gastric ulcers (i.e., prior to initiation of drug treatment), the mean surface area of the ulcers was 24±2 mm^2.

[3] = system: leukocyte adherence to the vascular endothelium; test: Leukocyte adherence to the vascular endothelium, intravital microscopy of mesenteric venules; conditions: for Number of Adherent Leukocytes: mean ± SEM
Description: Briefly, post-capillary mesenteric venules in anesthetized rats are examined under a light microscope. […] All test compounds were prepared in a vehicle of 1% carboxymethylcellulose. Changes in leukocyte adherence within the venule were recorded with a video camera attached to the microscope, and quantification of the numbers of adherent leukocytes was performed in a blind manner through evaluation of the videotaped images. Each group consisted of 5 male, Wistar rats weighing 150-175 g. A leukocyte was considered “adherent” if it remained stationary for 30 seconds or more (results below are expressed as the mean ± SEM).

[4] = Incidence of gastric damage at the end of the leukocyte adherence experiment; conditions: for Percent Incidence of Gastric Damage: end of experiment
Description: Briefly, post-capillary mesenteric venules in anesthetized rats are examined under a light microscope. […] All test compounds were prepared in a vehicle of 1% carboxymethylcellulose. Changes in leukocyte adherence within the venule were recorded with a video camera attached to the microscope, and quantification of the numbers of adherent leukocytes was performed in a blind manner through evaluation of the videotaped images. Each group consisted of 5 male, Wistar rats weighing 150-175 g. A leukocyte was considered “adherent” if it remained stationary for 30 seconds or more (results below are expressed as the mean ± SEM). At the end of the experiment the stomach was opened and examined for the presence of gastric damage, under a dissecting microscope.

[5] = target: T2, COX-1 (Rattus norvegicus, UniProt Q63921); test: Whole blood thromboxane B2 synthesis of treated rats (inhibition of COX-1); format: in vivo; conditions: for COX-1 activity (whole blood thromboxane B2 synthesis): oral 60 μmol/kg, FIG. 4
T2 construct: whole blood thromboxane synthesis, which occurs via COX-1; from tissue; host or cells: rat whole blood (ex vivo clotting after oral dosing)
T2 sequence (Q63921 27-602): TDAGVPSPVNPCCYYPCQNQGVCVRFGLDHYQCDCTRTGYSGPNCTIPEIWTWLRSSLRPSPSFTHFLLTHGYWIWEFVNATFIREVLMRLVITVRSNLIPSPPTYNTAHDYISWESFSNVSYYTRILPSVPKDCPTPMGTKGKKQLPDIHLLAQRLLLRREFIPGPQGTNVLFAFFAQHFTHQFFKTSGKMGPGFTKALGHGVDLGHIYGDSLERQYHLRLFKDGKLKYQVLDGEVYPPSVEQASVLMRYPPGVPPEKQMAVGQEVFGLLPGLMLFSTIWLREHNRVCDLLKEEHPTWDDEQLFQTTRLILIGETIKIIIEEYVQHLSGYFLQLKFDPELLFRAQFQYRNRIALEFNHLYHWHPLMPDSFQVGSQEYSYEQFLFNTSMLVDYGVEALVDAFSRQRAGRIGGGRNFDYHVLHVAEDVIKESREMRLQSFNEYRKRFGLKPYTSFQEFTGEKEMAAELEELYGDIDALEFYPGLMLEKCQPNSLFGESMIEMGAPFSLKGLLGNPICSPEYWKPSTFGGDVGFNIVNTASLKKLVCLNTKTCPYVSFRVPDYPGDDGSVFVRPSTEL
Description: Inhibition of COX-1 was also measured using the same rats. […] The samples were then centrifuged for 3 min at 9,000 g and the supernatant was frozen at −80° C. for subsequent measurement of thromboxane B2 concentrations using a specific ELISA.
Inhibition of COX-1 was also measured using the same rats, using the same method as described for FIG. 4. […]

[6] = Gastric damage (gastric damage score) in rats after oral dosing; conditions: for gastric damage: oral 60 μmol/kg, evaluated 3 hours later, FIG. 3
[7] = system: gastric prostaglandin E2 (PGE2) synthesis (COX-1 and/or COX-2); test: Gastric prostaglandin E2 (PGE2) synthesis in excised rat gastric tissue; format: in vivo; conditions: oral; doses equimolar to diclofenac 20 mg/kg; tissue taken 3 h after administration; FIG. 2
Description: Briefly, the tissue samples were minced with scissors for 30 min, then placed in 1 mL of sodium phosphate buffer (pH 7.4) and placed in a shaking water bath (37° C.) for 20 min.

[8] = Carrageenan hindpaw edema model; format: in vivo, rat; conditions: oral, dose equimolar to diclofenac at 3 mg/kg, 30 min prior to carrageenan, compared with diclofenac, FIGS. 9, 10
Description: Male, Wistar rats weighing 175-200 g were given the test compounds orally 30 min prior to subplantar injection of 100 ul of 1% lambda carrageenan. Paw volume measured using an Ugo Basile hydroplethysmometer prior to carrageenan injection and at 1-h intervals thereafter for 5 h.

[9] = 60 μmol/kg twice-daily orally for 4 days

## COc1ccc2cc([C@H](C)C(=O)O)ccc2c1 [Naproxen, naproxen, reference compound]
[1]; 60 μmol/kg, FIG. 11
  COX-2 activity (exudate PGE2): significantly suppressed COX-2 activity as compared to the group treated with vehicle
[2]; [9]
  gastric ulcer healing (ulcer area): exhibited similar degrees of healing
[3]; intragastric 60 μmol/kg
  Number of Adherent Leukocytes: 10.2 ± 0.4 per 100 μm vessel length
[4]; intragastric 60 μmol/kg
  Percent Incidence of Gastric Damage: 100%

## O=C(Cc1ccccc1Nc1c(F)cccc1Cl)Oc1ccc(-c2cc(=S)ss2)cc1 [Compound III, [2-(2-chloro-6-fluorophenylamino)-phenyl]-acetic acid 4-(5-thioxo-5H-[1,2]dithiol-3-yl)-phenyl ester]
[3]; intragastric 30 μmol/kg
  number of adherent leukocytes compared to the parent NSAID alone: significantly reduced the number of adherent leukocytes per 100 μm vessel length when compared to lumiracoxib alone
  Number of Adherent Leukocytes: 1.7 ± 0.3 per 100 μm vessel length
[4]; intragastric 30 μmol/kg
  percent incidence of gastric damage compared to the parent NSAID alone: still showed no incidences of gastric damage
  Percent Incidence of Gastric Damage: 0%

## COc1ccc2cc(C(C)C(=O)Oc3ccc(C(N)=S)cc3)ccc2c1 (stereo not drawn) [Compound XX, 2-(6-Methoxy-naphthalen-2-yl)-propionic acid 4-thiocarbamyl-phenyl ester]
[2]; [9]
  gastric ulcer healing (ulcer area): exhibited significantly greater healing
[5]
  COX-1 activity (whole blood thromboxane B2 synthesis): significantly (*p<0.05) inhibited COX-1 activity as compared to the vehicle-treated group; also recorded: significantly better at inhibiting thromboxane B2 synthesis than the ADT-OH equivalent, Compound V
[6]
  gastric damage: not detectable; also recorded: elicited significantly less damage than naproxen itself

## Oc1ccc(-c2cc(=S)ss2)cc1 [ADT-OH, 5-p-hydroxyphenyl-1,2-dithiole-3-thione, reference compound]
[7]
  gastric PGE2 synthesis: did not reduce gastric PGE2 synthesis when compared to vehicle
[1]; hydrogen sulfide releasing moieties alone, dose not given
  COX-2 activity (exudate PGE2): neither of the hydrogen sulfide releasing moieties (ADT-OH and TBZ) significantly affected COX-2 activity
[5]; hydrogen sulfide releasing moieties alone, dose not given, FIG. 8
  COX-1 activity (whole blood thromboxane synthesis): neither of the hydrogen sulfide releasing moieties (ADT-OH and TBZ) significantly affected COX-1 activity

## COc1ccc2cc(C(C)C(=O)Oc3ccc(-c4cc(=S)ss4)cc3)ccc2c1 (stereo not drawn) [Compound V, 2-(6-Methoxy-naphthale-2-yl)-propionic acid 4-(5-thioxo-5-H-[1,2]dithiol-3-yl)-phenyl ester]
[1]; 60 μmol/kg, FIG. 11
  COX-2 activity (exudate PGE2): significantly suppressed COX-2 activity as compared to the group treated with vehicle
[5]
  COX-1 activity (whole blood thromboxane B2 synthesis): significantly (*p<0.05) inhibited COX-1 activity as compared to the vehicle-treated group; also recorded: somewhat less with Compound V than with naproxen or Compound XX
[3]; intragastric 60 μmol/kg
  number of adherent leukocytes compared to the parent NSAID alone: significantly reduced the number of adherent leukocytes per 100 μm vessel length
  Number of Adherent Leukocytes: 3.5 ± 0.7 per 100 μm vessel length
[6]
  gastric damage: not detectable; also recorded: elicited significantly less damage than naproxen itself
[4]; intragastric 60 μmol/kg
  percent incidence of gastric damage compared to the parent NSAID alone: significantly reduced the percent incidence of gastric damage when compared to naproxen alone
  Percent Incidence of Gastric Damage: 0%

## CC(=O)Oc1ccccc1C(=O)Oc1ccc(-c2cc(=S)ss2)cc1 [Compound I, 4-(5-thioxo-5H-1,2-dithiol-3-yl)phenyl 2-acetoxybenzoate]
[3]; intragastric 30 μmol/kg
  number of adherent leukocytes compared to the parent NSAID alone: significantly reduced the number of adherent leukocytes per 100 μm vessel length when compared to aspirin alone
  Number of Adherent Leukocytes: 2.5 ± 0.3 per 100 μm vessel length
[4]; intragastric 30 μmol/kg
  percent incidence of gastric damage compared to the parent NSAID alone: significantly reduced the percent incidence of gastric damage when compared to aspirin alone
  Percent Incidence of Gastric Damage: 20%

## Cc1ccc(Nc2c(F)cccc2Cl)c(CC(=O)Oc2ccc(C(N)=S)cc2)c1 [Compound XVIII, 4-thiocarbamoylphenyl 2-(2-(2-chloro-6-fluorophenylamino)-5-methylphenyl)acetate]
[3]; intragastric 30 μmol/kg
  number of adherent leukocytes compared to the parent NSAID alone: significantly reduced the number of adherent leukocytes per 100 μm vessel length when compared to lumiracoxib alone
  Number of Adherent Leukocytes: 2.3 ± 0.4 per 100 μm vessel length
[4]; intragastric 30 μmol/kg
  percent incidence of gastric damage compared to the parent NSAID alone: still showed no incidences of gastric damage
  Percent Incidence of Gastric Damage: 0%

## NC(=S)c1ccc(OC(=O)Cc2ccccc2Nc2c(Cl)cccc2Cl)cc1 [Compound XVII, [2-(2,6-dichloro-phenylamino)-phenyl]-acetic acid 4-thiocarbamoyl-phenyl ester]
[2]; 30 μmol/kg twice-daily orally for 4 days
  gastric ulcer healing (ulcer area): exhibited significantly greater healing
[5]; rat, po, read-out: inhibition of whole blood thromboxane synthesis (COX-1)
  inhibition at 4.1 mg/kg: > 80%
[3]; intragastric 30 μmol/kg
  number of adherent leukocytes compared to the parent NSAID alone: significantly reduced the number of adherent leukocytes per 100 μm vessel length
  Number of Adherent Leukocytes: 2.8 ± 0.5 per 100 μm vessel length
[6]; rats fasted 18 h, oral, doses equimolar to diclofenac 20 mg/kg, 3 h after administration, FIG. 1
  gastric damage score: no gastric damage was seen; also recorded: elicited significantly less gastric damage than diclofenac
[8]
  paw edema (paw volume increase): reduced paw edema to a greater extent
[8]; 3 mg/kg
  paw edema (paw volume increase): comparable to the effect of diclofenac at a dose of 10 mg/kg
[4]; intragastric 30 μmol/kg
  percent incidence of gastric damage compared to the parent NSAID alone: significantly reduced the percent incidence of gastric damage when compared to diclofenac alone
  Percent Incidence of Gastric Damage: 20%

## CC(=O)Oc1ccccc1C(=O)Oc1ccc(C(N)=S)cc1 [Compound XVI, 2-Acetoxy-benzoic acid 4-thiocarbamoyl-phenyl ester]
[3]; intragastric 30 μmol/kg
  number of adherent leukocytes compared to the parent NSAID alone: significantly reduced the number of adherent leukocytes per 100 μm vessel length when compared to aspirin alone
  Number of Adherent Leukocytes: 2.3 ± 0.3 per 100 μm vessel length
[4]; intragastric 30 μmol/kg
  percent incidence of gastric damage compared to the parent NSAID alone: significantly reduced the percent incidence of gastric damage when compared to aspirin alone
  Percent Incidence of Gastric Damage: 0%
